Measurements taken from patent US20240415804A1, “METHOD OF TREATING PANCREATIC CANCER” (University of South Florida, priority 2022, published 2024).

Key:
Panc02 cells = assay: MTT cell viability assay, Panc02; type: cell-based, mouse; settings: API 40 μM, 24 h, vs DMSO vehicle
Protocol: The methyl thiazol tetrazolium (MTT) assay was performed as described previously^58. Briefly, MiaPaCa-2, Panc02 and UN-KC-6141 cells were seeded in 96-well plates at a density of 3000 cells/well and allowed to attach overnight. PC cells were then treated with API (40 μM) or DMSO (1%) as vehicle control for 24 h at 37° C. in 5% CO2 incubator. After 24 h, media was replaced with 20 μL of MTT (1 mg/mL) (Sigma-Aldrich) and incubated for 3 h at 37° C. in 5% CO2. MTT was replaced with DMSO, and absorbance was read at 570 nm.
MiaPaCa-2, Panc02 and UN-KC-6141 cells (2×10^5) were grown in 2 mL of growth medium in a 6-well tissue culture plate for 18-24 h until 60-80% confluency. The following solutions were prepared: Solution A) For each transfection, diluted 1 μL of miRNA-155 inhibitors (1 μM) (Table 2) or scrambled negative control miRNA (1 μM) (Qiagen, Germantown, MD, USA) into 50 μL Opti-MEM Transfection Medium (Invitrogen, Waltham, MA, USA). Solution B) For each transfection, diluted 3 μL of Hi-Perfect Transfection Reagent into 50 μL Opti-MEM Transfection Medium. Solution A was added directly to Solution B, mixed gently and the mixture incubated for 10-15 min at room temperature. […]

miR-155 = miR-155 gene expression by RT-qPCR in Panc02 cells; type: cell-based, mouse; settings: API 40 μM, 24 h, vs DMSO vehicle
Protocol: MiR-155 is known to be overexpressed in different cancers, including PC^21, 23. The inventors first assessed whether apigenin could modulate the expression of miR-155 in PC cells. Murine PC cell lines Panc02 and UN-KC-6141 as well as the human PC cell line MiaPaCa-2 were treated with API (40 μM) or DMSO vehicle for 24 h and the expression of miR-155 was examined using RT-qPCR assay. […] Since API is known to inhibit the growth of cancer cells, including PC cells^39-43, 47-50, the same PC cell lines were treated with API (40 μM) or DMSO (vehicle) for 24 h and examined cell viability using MTT assay. […] Moreover, Panc02 and UN-KC-6141 cells were then treated with API at a dose dependent concentration (10, 20, 30, 40, 50 μM) and detected apoptosis using flow cytometry (Annexin V and PI).
miR-155 is implicated in the development of pancreatic tumors from pancreatic intraepithelial neoplasia (PanIN) lesions, and is overexpressed in PC^23. The inventors examined whether the depletion of miR-155 modulated PC viability. Murine and human PC cell lines were transfected with miR-155 inhibitor (i.e., MMU-MIR-155-5P/HSA-MIR-155-5P) and scrambled miRNA at a concentration of 100 nM for 24 h and cell viability determined using an MTT assay. The expression of miR-155 was examined using an RT-qPCR assay as well. […]

PC-bearing mice = settings: cited from earlier work
iNOS = assay: Western blot of iNOS protein in tumors of KC-HPC mice; type: in vivo, mouse; settings: KC-HPC-API vs KC-HPC mice
Protocol: The inventors then assessed the expression of CD40 (a T cell co-stimulation marker) on M1 TAM (gated as MHC-II^+ and CD206) within the tumor from KC-HPC vs. KC-HPC-API mice. […] Single-cell suspensions of BM, digested pancreatic tumors cells and UN-KC-6141 cells treated with API (40 μM) were lysed with radioimmunoprecipitation buffer (Sigma-Aldrich), quantified with a BCA Protein Assay kit (Thermo Fisher Scientific, Waltham, MA, USA), resolved by SDS-PAGE (Thermo Fisher Scientific) and transferred onto a nitrocellulose membrane as previously described. Membranes were probed with either anti-SHIP-1 (Santa Cruz Biotechnology, Dallas, TX, USA), anti-iNOS (Cell Signaling Technology) or anti-Bcl-2 (Cell Signaling Technology, Danvers, MA, USA), all at a dilution of 1:1000. All blots were re-probed with a housekeeping protein, HRP-conjugated anti-β-actin (Sigma-Aldrich), at a dilution of 1:20,000. Membranes were then probed with the respective secondary anti-mouse or rabbit IgG HRP-conjugated antibodies (1:1000) of SHIP-1 and iNOS. Detection of SHIP-1, iNOS and β-actin proteins was performed using Super Signal West Pico or Femto Chemiluminescent Substrates (Thermo Fisher Scientific) and then imaged on a Bio-Rad Chemi Doc XRS Imaging System. Normalized densitometric ratios (divided by β-actin) were determined by quantifying WB results using Image J.

[1] = PC mouse model treated with API, earlier report (ref 12)
[2] = PC-bearing mice, previous results (ref 12)

O=c1cc(-c2ccc(O)cc2)oc2cc(O)cc(O)c12 [API, 40,5,7-Trihydroxyflavone, 5,7-Dihydroxy-2-(4-hydroxyphenyl)-4-benzopyrone]
cell viability (MTT) (Panc02 cells): significantly inhibited | miR-155 gene expression (miR-155): significantly suppressed | tumor weights (PC-bearing mice; PC mice, previous report (refs 12, 55)): decreases | intratumoral Treg percentages (PC-bearing mice; [1]): significant reduction | splenic Treg percentages (PC-bearing mice; [1]): significant reduction | IFN-γ production from intratumoral CD8+ T cells (PC-bearing mice; [2]): increases | granzyme B (PC-bearing mice; [2]): increases | perforin (PC-bearing mice; [2]): increases | iNOS protein expression in tumor (iNOS): significant increase
